The source of these data is US20250059187A1, “COVALENTLY BINDING INHIBITORS OF G12S, G12D AND/OR G12E MUTANTS OF K-RAS GTPASE” (The Regents of the University of California, priority 2021, published 2025).

Experiment [1] concerns the target T1, interaction between Raf-RBD and K-Ras(G12D) (Homo sapiens, UniProt P01116, G12D).
T1 construct: human K-Ras (G12D, aa 1-169); 6xHis tag + TEV cleavage site (N); made in house; host or cells: E. coli BL21(DE3) for K-Ras
As to the kind of experiment: Time-resolved fluorescence energy transfer assay, Raf-RBD and K-Ras(G12D). In kind it is biochemical. The following applies: dose-dependent.

Experiment [2] concerns the target T2, wild type K-Ras (Homo sapiens, UniProt P01116).
T2 construct: human K-Ras (wildtype, aa 1-169); 6xHis tag + TEV cleavage site (N, cleaved yes); made in house; host or cells: E. coli BL21(DE3)
The experiment can be described thus: Covalent modification of test protein after incubation with compound. It counts as binding. The settings on record: 24-h incubation with 100 μM compound at 23° C. at pH 7.5.

Experiment [3] has as its target T3, K-Ras G12D (Homo sapiens, UniProt P01116, G12D).
T3 construct: human K-Ras (G12D, aa 1-169); 6xHis tag + TEV cleavage site (N, cleaved yes); made in house; host or cells: E. coli BL21(DE3)
Described as above. In kind it is binding. The settings on record: 24-h incubation with 100 μM compound at 23° C. at pH 7.5.

Experiment [4] concerns the target T4, K-Ras G12E (Homo sapiens, UniProt P01116, G12E).
T4 construct: human K-Ras (G12E, aa 1-169); 6xHis tag + TEV cleavage site (N, cleaved yes); made in house; host or cells: E. coli BL21(DE3)
The experiment is described as above. In kind it is binding. The following applies: 24-h incubation with 100 μM compound at 23° C. at pH 7.5.

For experiment [5], the target named is T2, wild type K-Ras. As to the kind of experiment: Covalent modification of recombinant wild-type K-Ras by whole-protein mass spectrometry. In kind it is binding. The settings on record: 23° C. Here is the method: (§1) Test compounds were prepared as 100× stock solutions in DMSO. K-Ras proteins were diluted with SEC Buffer (20 mM HEPES 7.5, 150 mM NaCl, 1 mM MgCl2) to 400 nM or 1 μM. In a typical reaction, 0.5 μL 100× compound stock was mixed with 50 μL diluted K-Ras protein, and the resulting mixture was incubated for the desired amount of time. The extent of modification was assessed by electrospray mass spectrometry using a Waters Xevo G2-XS system equipped with an Acquity UPLC BEH C4 1.7 μm column. The mobile phase was a linear gradient of 5-95% acetonitrile/water+0.05% formic acid. For kinetic measurements, a 2× compound solution was first prepared in SEC Buffer, which was then mixed with 400 nM K-Ras(G12S) protein at 1:1 (v/v) ratio. Injection time stamps were used to calculate elapsed time.
as §1, with “K-Ras(G12D)” for “K-Ras(G12S)”

Experiment [6] concerns the target T5, K-Ras(G12S)·GDP (Homo sapiens, UniProt P01116, G12S).
T5 construct: human K-Ras (G12S, aa 1-169); 6xHis tag + TEV cleavage site (N, cleaved yes); made in house; host or cells: E. coli BL21(DE3)
The experiment can be described thus: Differential scanning fluorimetry of K-Ras(G12S)·GDP and its adduct. It counts as binding. Here is the method:
The protein of interest was diluted with SEC Buffer [20 mM HEPES 7.5, 150 mM NaCl, 1 mM MgCl2] to 8 μM. This solution was dispensed into wells of a white 96-well PCR plate in triplicate (25 μL/well). Fluorescence was measured at 0.5-° C. temperature intervals every 30 s from 25° C. to 95° C. on a Bio-Rad CFX96 qPCR system using the FRET setting. Each data set was normalized to the highest fluorescence and the normalized fluorescence reading was plotted against temperature in GraphPad Prism 8.0. Tm values were determined as the temperature(s) corresponding to the maximum(ma) of the first derivative of the curve.

For experiment [7], the target named is T6, K-Ras(G12S) (Homo sapiens, UniProt P01116, G12S). The experiment can be described thus: Covalent modification of recombinant K-Ras(G12S) by whole-protein mass spectrometry. The following applies: for extent of modification of K-Ras(G12S)·GDP: 10 μM compound, 4 μM protein. It counts as binding. The arrangement: human K-Ras (G12S, aa 1-169); 6xHis tag + TEV cleavage site (N, cleaved yes); made in house; host or cells: E. coli BL21(DE3). The protocol: as §1, with “The mobile phase was a linear gradient of 5-95% acetonitrile/water+0.05% formic acid.” left out
as §1, with “The mobile phase was a linear gradient of 5-95% acetonitrile/water+0.05% formic acid.” left out, “K-Ras(G12D)” for “K-Ras(G12S)”

For experiment [8], the target named is T6, K-Ras(G12S). As to the kind of experiment: Sos- or EDTA-mediated nucleotide exchange assay (BODIPY-GDP). The settings on record: K-Ras(G12S) adduct. The arrangement: human K-Ras (G12S, aa 1-169); 6xHis tag + TEV cleavage site (N, cleaved yes); made in house; host or cells: E. coli BL21(DE3) for K-Ras. It counts as biochemical. Here is the method: This assay was performed as previously reported (2-5) with slight modifications. BODIPY-GDP-loaded K-Ras proteins were prepared freshly as follows. To a 10 μM solution of K-Ras(wildtype)·GDP, K-Ras(G12S)·GDP, or K-Ras(G12S)·GDP·1′ in SEC Buffer (1 mL) was added sequentially BODIPY-GDP (5 mM, 40 μL, Thermo Fisher, final concentration 200 μM) and Na-EDTA pH 8.0 (0.5 M, 5 μL, final concentration 2.5 mM). The mixture was incubated at 23° C. for 1 h, and a solution of MgCl2 (1.0 M, 20 μL, […]) was added to the reaction mixture. The protein solution was run through a PD-10 column to remove the excess nucleotide following the manufacturer's protocol. Briefly, sample (˜1.0 mL) and excess buffer (1.5 mL) were loaded onto the column (equilibrated with NucEx Buffer), and desalted protein was eluted with NucEx Buffer (3.5 mL). Protein concentration was measured with Bradford assay and adjusted to 1.25 μM with NucEx Buffer. 12 μL of this solution (triplicate for each condition) was added to wells of a black 384-well low-volume assay plate (Corning 4514). […] The plate was immediately placed in a TECAN Spark 20M plate reader, and fluorescence for BODIPY (excitation 488 nm, emission 520 nm) was read every 30 s over 1 h. Fluorescence intensity was normalized to values at time 0 and plotted again time. […]

The subject of experiment [9] is parental Ba/F3 cells (with IL-3). As to the kind of experiment: Cell viability assay (CellTiter-Glo), parental Ba/F3 cells. The following applies: 10 μM. It counts as cell-based, murine. The protocol: Cells were seeded into 96-well white flat bottom plates (1,000 cells/well) (Corning) and incubated overnight. […] Cell viability was assessed using a commercial CellTiter-Glo (CTG) luminescence-based assay (Promega). Briefly, the 96-well plates were equilibrated to room temperature before the addition of diluted CTG reagent […] (1:4 CTG reagent:PBS). Plates were placed on an orbital shaker for 30 min before recording luminescence using a Spark 20M (Tecan) plate reader.

Experiment [10] has as its target T7, K-Ras(G12D)·GDP (Homo sapiens, UniProt P01116, G12D).
T7 construct: human K-Ras (G12D, aa 1-169); 6xHis tag + TEV cleavage site (N, cleaved yes); made in house; host or cells: E. coli BL21(DE3)
As to the kind of experiment: Detection of covalent modification of K-Ras(G12D) by tandem mass spectrometry. In kind it is binding. The following applies: 1 mM or 10 mM, 23° C., 1 h. The protocol: K-Ras(G12D) protein (1 μM, 100 μL) in PBS 7.4 was treated with β-propiolactone (1 mM or 10 mM) at 23° C. for 1 h. The reaction buffer was exchanged into Digestion Buffer (20 mM Tris 8.0, 2 mM CaCl2)) using a Zeba 0.5-mL desalting column (7K MWCO, Thermo Scientific). 80 μL of the resulting protein solution was mixed with 2 μL 200 mM DTT. The mixture was heated at 56° C. for 30 min. After cooling to 23° C., 4 μL 200 mM iodoacetamide was added. After 15 min at 23° C., 2.1 μL 200 mM DTT was added. After an additional 5 min, 500 ng trypsin was added to the mixture, and the samples were incubated at 37° C. overnight. 5 μL 10% formic acid was added to stop the digestion (final formic acid concentration: 0.5% v/v). The tryptic peptides were enriched and desalted using OMIX C18 tips (Agilent) following the manufacturer's instructions. Peptides (0.5% of total) were resolved on an Easy-Spray nano-HPLC column (Thermo Fisher ES800A, 150 mm length, […], […]) over a 54-min gradient of 2-37% acetonitrile-water+0.1% formic acid and analyzed by a Q-Exactive hybrid quadrupole-orbitrap mass spectrometer (MS1 resolution 70,000, AGC target: 3e6, range: 350-1500 m/z; MS2 resolution 17,500, AGC target: 5e4, max injection time: 120 ms, Top 10, NCE: 25%, dynamic exclusion: 15 s). […]

SMILES strings stand for the structures. “Also recorded” adds a separate entry of the source.

In the case of `C#Cc1cccc2cccc(-c3ncc4c(N5C[C@H]6CC[C@@H](C5)N6C(=O)C5CC(=O)O5)nc(OCC56CCCN5CCC6)nc4c3F)c12` (mixture of isomers) [(RS)-1], in [1], the “interaction between Raf-RBD and K-Ras(G12D)” value is listed as “disrupted Ras-RafRBD binding”. In experiment [2], the “% covalent modification of wild type K-Ras” value came out at 0%. In addition, the “% covalent modification of K-Ras G12D” value in experiment [3] was determined as 100%. Further, in experiment [4], the “% covalent modification of K-Ras G12E” value is listed as 6.3%.
For `CN1CCC[C@H]1COc1nc2c(c(N3CCC4C(=O)OC4C3)n1)CCN(c1cccc3cccc(Cl)c13)C2` (stereo partly shown) [1′], the “covalent adducts with wild-type K-Ras protein” value in experiment [5] (10 μM compound, 4 μM protein) is recorded as “neither of these compounds formed covalent adducts”. For the same molecule, the “% covalent modification of wild type K-Ras” value in experiment [5] (24-h incubation, 100 μM compound, pH 7.5) came out at 7.0%; in experiment [2] it was 7.0%. Also, the “change of melting temperature of K-Ras(G12S)·GDP on adduct formation” value in [6] was “+17.2 °C”. The “melting temperature (Tm) of the K-Ras(G12S)·GDP adduct” value in experiment [6] (unmodified K-Ras(G12S)·GDP 53.7° C.) was found to be 70.9 °C. Besides, the “% covalent modification of K-Ras G12D” value in [3] stood at 7.0%. The “% covalent modification of K-Ras G12E” value in [4] is 12.0%. Besides, the “extent of modification of K-Ras(G12S)·GDP” value in [7] (1 hour, 23° C.) came to 64%; in [7] (12 h), 100%. In addition, the “% covalent modification of K-Ras G12S” value in experiment [7] (24-h incubation, 100 μM compound, 23° C., pH 7.5) turned out to be 100%. The “reaction with GppNHp-loaded K-Ras(G12S)” value in experiment [7] (GppNHp-loaded protein, identical conditions) is “no reaction was observed; also recorded: does not react”. Also, in experiment [8] (EDTA), the “EDTA promoted nucleotide exchange” value is on record as “decreased the rate of EDTA promoted exchange”. Moreover, the Sos-catalyzed nucleotide exchange entry in experiment [8] (Sos) is given as “blocked Sos-catalyzed exchange”.
`C=C(F)C(=O)N1CCN(c2nc(OC[C@@H]3CCCN3C)nc3c2CCN(c2cccc4cccc(Cl)c24)C3)C[C@@H]1CC#N` [adagrasib, reference compound]: the “cell death of parental Ba/F3 cells” value in experiment [9] is “complete cell death”.
Turning to `O=C1CCO1` [β-propiolactone], the “alkylation of Asp12 in peptide LVVVGAD*GVGK” value in [10] was “the mutant aspartate was covalently alkylated by a 2-carboxylethyl group”.
